Structures can show the parent of a compound that is named as a salt. Where two headings read alike, the source gives them in different places.
Biological target: T1, Farnesyltransferase (FTase) (Bos taurus, UniProt P29702+P49355)
T1 construct: precipitation from a beef brain homogenate; from tissue; host or cells: bovine brain
Assay: Farnesyltransferase inhibition (scintillation proximity assay, [3H]-FPP / biotin-K-ras peptide)
Assay type: biochemical, bovine
Method: Farnesyltransferase (FTase) or geranylgeranyltransferase I (GGTase I) fractions were isolated from bovine brains and purified by a series of methods which separate FTase from GGTase I and GGTase I from GGTase II. The methods involved a partial purification of all three enzymes by precipitation from a beef brain homogenate with 30% to 50% saturated […] followed by chromatography on DEAE Sepharose. […] The catalytic purity of each enzyme was assayed separately with substrate acceptor proteins specific for that enzyme. After quickly freezing in liquid nitrogen, the various prenyl transferases were stored at −80° C.
The quenched reactions stood for 1 hour before analysis in a Packard TopCount scintillation counter. Purified compounds were dissolved in 100% ethanol and diluted 10-fold into the assay.

[1] = compound at 10^−6 M, bovine FTase, 37° C., 30 minutes

T1 sequence (P49355 whole entry, one chain of several): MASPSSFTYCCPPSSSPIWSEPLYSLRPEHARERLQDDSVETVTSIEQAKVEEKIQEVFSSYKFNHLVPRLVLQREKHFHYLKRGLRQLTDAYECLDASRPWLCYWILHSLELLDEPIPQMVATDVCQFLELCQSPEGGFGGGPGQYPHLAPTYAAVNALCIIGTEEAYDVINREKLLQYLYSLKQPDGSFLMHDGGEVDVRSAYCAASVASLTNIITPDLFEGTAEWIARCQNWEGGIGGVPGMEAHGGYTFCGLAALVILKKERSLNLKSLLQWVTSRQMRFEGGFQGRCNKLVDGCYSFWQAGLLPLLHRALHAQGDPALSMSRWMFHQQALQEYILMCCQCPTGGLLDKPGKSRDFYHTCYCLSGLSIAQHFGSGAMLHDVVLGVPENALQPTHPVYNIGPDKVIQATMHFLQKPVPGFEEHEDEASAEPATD

| Compound | inhibition at 1 µM [1] | further results |
| --- | --- | --- |
| Cl.Cl.Cn1cncc1C(OCc1cc(Cl)nc(Cl)c1)c1ccc(C#N)c(-c2cccc3ccccc23)c1 (stereo not drawn) [Example 74, 4-(((2,6-dichloro-4-pyridinyl)methoxy)(1-methyl-1H-imidazol-5-yl)methy)-2-(1-naphthyl)benzonitrile dihydrochloride] |  | % Inhibition at 10^−6M [1]: 100% |
| Cn1cncc1C(OCc1ccc(C#N)c(F)c1)c1ccc(C#N)c(-c2cccc3ccccc23)c1 (stereo not drawn) [Example 77, 4-(((4-cyano-3-fluorobenzyl)oxy)(1-methyl-1H-imidazol-5-yl)methyl)-2-(1-naphthyl)benzonitrile hydrochloride] | 100% |  |
| Cc1ccccc1-c1cc(C(OCc2ccccc2)c2cnnn2C)ccc1C#N (stereo not drawn) [Example 81, 5-((benzyloxy)(1-methyl-1H-1,2,3-triazol-5-yl)methyl)-2′-methyl(1,1′-biphenyl)-2-carbonitrile hydrochloride] | 14% |  |
| N#Cc1ccc(CN(CCC2CCCCC2)C(=O)Cn2ccnc2)cc1-c1cccc2ccccc12 [Example 85, N-(4-cyano-3-(1-naphthyl)benzyl)-N-(2-cyclohexylethyl)-2-(1H-imidazol-1-yl)acetamide] | 46% |  |
| Cn1cncc1C(OCc1ccccc1)c1ccc(C#N)c(-c2ccccc2)c1 (stereo not drawn) [Example 87, 5-((benzyloxy)(1-methyl-1H-imidazol-5-yl)methyl)(1,1′-biphenyl)-2-carbonitrile hydrochloride] | 89% |  |
| Cn1cncc1C(OCc1ccccc1)c1ccc(C#N)c(-c2ccsc2)c1 (stereo not drawn) [Example 90, 4-((benzyloxy)(1-methyl-1H-imidazol-5-yl)methyl)-2-(3-thienyl)benzonitrile hydrochloride] | 90% |  |
| Cc1cccc(-c2cc(C(OCc3ccccc3)c3cncn3C)ccc2C#N)c1 (stereo not drawn) [Example 91, 5-((benzyloxy)(1-methyl-1H-imidazol-5-yl)methyl)-3′-methyl(1,1′-biphenyl)-2-carbonitrile hydrochloride] | 94% |  |
| Cc1ccc(-c2cc(C(OCc3ccccc3)c3cncn3C)ccc2C#N)cc1 (stereo not drawn) [Example 93, 5-((benzyloxy)(1-methyl-1H-imidazol-5-yl)methyl)-4′-methyl(1,1′-biphenyl)-2-carbonitrile hydrochloride] | 58% |  |
| Cn1cncc1C(OCc1ccccc1)c1ccc(C#N)c(C2CCCCC2)c1 (stereo not drawn) [Example 100, 4-((benzyloxy)(1-methyl-1H-imidazol-5-yl)methyl)-2-cyclohexylbenzonitrile hydrochloride] | 83% |  |
| Cc1ccccc1-c1cc(C(OCc2ccc(C#N)cc2)c2cncn2C)ccc1C#N (stereo not drawn) [Example 116, 5-(((4-cyanobenzyl)oxy)(1-methyl-1H-imidazol-5-yl)methyl)-2′-methyl(1,1′-biphenyl)-2-carbonitrile hydrochloride] | 99% |  |
| Cc1ccccc1-c1cc(C(OCc2cccc(I)c2)c2cncn2C)ccc1C#N (stereo not drawn) [Example 117, 5-(((3-iodobenzyl)oxy)(1-methyl-1H-imidazol-5-yl)methyl)-2′-methyl(1,1′-biphenyl)-2-carbonitrile hydrochloride] | 90% |  |
| Cc1ccccc1-c1cc(C(OCc2cccc(Cl)c2)c2cncn2C)ccc1C#N (stereo not drawn) [Example 120, 5-(((3-chlorobenzyl)oxy)(1-methyl-1H-imidazol-5-yl)methyl)-2′-methyl(1,1′-biphenyl)-2-carbonitrile hydrochloride] | 90% |  |
| Cc1ccccc1-c1cc(C(OCc2ccc([N+](=O)[O-])cc2)c2cncn2C)ccc1C#N.Cl (stereo not drawn) [Example 121] |  | % Inhibition at 10^−6M: 96% |
| Cc1ccccc1-c1cc(C(OCc2cccc(C(F)(F)F)c2)c2cncn2C)ccc1C#N.Cl (stereo not drawn) [Example 123] |  | % Inhibition at 10^−6M: 97% |
| Cc1ccccc1-c1cc(C(OCc2c(Cl)cccc2Cl)c2cncn2C)ccc1C#N (stereo not drawn) [Example 124, 5-(((2,6-dichlorobenzyl)oxy)(1-methyl-1H-imidazol-5-yl)methyl)-2′-methyl(1,1′-biphenyl)-2-carbonitrile hydrochloride] | 90% |  |
| Cc1ccc(COC(c2ccc(C#N)c(-c3ccccc3C)c2)c2cncn2C)cc1.Cl (stereo not drawn) [Example 127] |  | % Inhibition at 10^−6M: 93% |
| Cc1cccc(COC(c2ccc(C#N)c(-c3ccccc3C)c2)c2cncn2C)c1.Cl (stereo not drawn) [Example 128] |  | % Inhibition at 10^−6M: 94% |
| Cc1ccccc1-c1cc(C(OCc2cc(F)ccc2F)c2cncn2C)ccc1C#N (stereo not drawn) [Example 129, 5-(((2,5-difluorobenzyl)oxy)(1-methyl-1H-imidazol-5-yl)methyl)-2′-methyl(1,1′-biphenyl)-2-carbonitrile hydrochloride] | 93% |  |

More lines, main results first:

| inhibition at 1 µM [1] | Compound | further results |
| --- | --- | --- |
| 100% | Cn1cncc1C(OCc1ccc(C#N)c(Br)c1)c1ccc(C#N)c(-c2cccc3ccccc23)c1 (stereo not drawn) [Example 75, 4-(((3-bromo-4-cyanobenzyl)oxy)(1-methyl-1H-imidazol-5-yl)methyl)-2-(1-naphthyl)benzonitrile hydrochloride] |  |
| 12% | Cc1ccccc1-c1cc(C(OCc2ccccc2)c2ccsc2)ccc1C#N (stereo not drawn) [Example 80, 5-((benzyloxy)(3-thienyl)methyl)-2′-methyl(1,1′-biphenyl)-2-carbonitrile] |  |
| 87% | Cc1ccccc1-c1cc(CN(CCC2CCCCC2)Cc2cncn2C)ccc1C#N [Example 82, 5-(((2-cyclohexylethyl)((1-methyl-1H-imidazol-5-yl)methyl)amino)methyl)-2′-methyl(1,1′-biphenyl)-2-carbonitrile hydrochloride] |  |
| 86% | Cc1ccccc1-c1cc(C(O)c2cncn2C)ccc1C#N (stereo not drawn) [Example 86, 5-(hydroxy(1-methyl-1H-imidazol-5-yl)methyl)-2′-methyl(1,1′-biphenyl)-2-carbonitrile] |  |
| 53% | Cn1cncc1C(OCc1ccccc1)c1ccc(C#N)c(-c2ccc3ccccc3c2)c1 (stereo not drawn) [Example 92, 4-((benzyloxy)(1-methyl-1H-imidazol-5-yl)methyl)-2-(2-naphthyl)benzonitrile hydrochloride] |  |
| 82% | CCOCn1cncc1C(OCc1ccccc1)c1ccc(C#N)c(-c2cccc3ccccc23)c1 (stereo not drawn) [Example 105, 4-((benzyloxy)(1-(ethoxymethyl)-1H-imidazol-5-yl)methyl)-2-(1-naphthyl)benzonitrile hydrochloride] |  |
| 100% | Cc1ccccc1-c1cc(C(O)(C#Cc2ccccc2)c2cncn2C)ccc1C#N (stereo not drawn) [Example 109, 5-(1-hydroxy-1-(1-methyl-1H-imidazol-5-yl)-3-phenyl-2-propynyl)-2′-methyl(1,1′-biphenyl)-2-carbonitrile] |  |
| 96% | Cc1ccccc1-c1cc(C(O)(CCc2ccccc2)c2cncn2C)ccc1C#N (stereo not drawn) [Example 110, 5-(1-hydroxy-1-(1-methyl-1H-imidazol-5-yl)-3-phenylpropyl)-2′-methyl(1,1′-biphenyl)-2-carbonitrile] |  |
| 100% | Cn1cncc1C(O)(C#Cc1ccccc1)c1ccc(C#N)c(-c2cccc3ccccc23)c1 (stereo not drawn) [Example 111, 4-(1-hydroxy-1-(1-methyl-1H-imidazol-5-yl)-3-phenyl-2-propynyl)-2-(1-naphthyl)benzonitrile] |  |
| 100% | Cn1cncc1C(OCc1ccc(C#N)cc1)c1ccc(F)c(-c2cccc3ccccc23)c1 (stereo not drawn) [Example 112, 4-(((4-fluoro-3-(1-naphthyl)phenyl)(1-methyl-1H-imidazol-5-yl)methoxy)methyl)benzonitrile para-toluenesulfonic acid salt] |  |
| 90% | Cc1ccccc1-c1cc(C(OCc2cccc(C#N)c2)c2cncn2C)ccc1C#N (stereo not drawn) [Example 113, 5-(((3-cyanobenzyl)oxy)(1-methyl-1H-imidazol-5-yl)methyl)-2′-methyl(1,1′-biphenyl)-2-carbonitrile hydrochloride] |  |
| 99% | Cn1cncc1CN(Cc1ccc(C#N)cc1)Cc1ccc(C#N)c(-c2cccc3cccnc23)c1 [Example 114, 4-(((4-cyanobenzyl)((1-methyl-1H-imidazol-5-yl)methyl)amino)methyl)-2-(8-quinolinyl)benzonitrile] |  |
| 89% | Cc1ccccc1-c1cc(C(OCc2ccc(C(C)(C)C)cc2)c2cncn2C)ccc1C#N (stereo not drawn) [Example 115, 5-(((4-(tert-butyl)benzyl)oxy)(1-methyl-1H-imidazol-5-yl)methyl)-2′-methyl(1,1′-biphenyl)-2-carbonitrile hydrochloride] |  |
| 90% | Cc1ccccc1-c1cc(C(OCc2ccc(F)cc2)c2cncn2C)ccc1C#N (stereo not drawn) [Example 118, 5-(((4-fluorobenzyl)oxy)(1-methyl-1H-imidazol-5-yl)methyl)-2′-methyl(1,1′-biphenyl)-2-carbonitrile hydrochloride] |  |
| 93% | Cc1ccccc1-c1cc(C(OCc2ccc(Br)cc2)c2cncn2C)ccc1C#N (stereo not drawn) [Example 119, 5-(((4-bromobenzyl)oxy)(1-methyl-1H-imidazol-5-yl)methyl)-2′-methyl(1,1′-biphenyl)-2-carbonitrile hydrochloride] |  |
| 94% | COc1ccc([N+](=O)[O-])cc1COC(c1ccc(C#N)c(-c2ccccc2C)c1)c1cncn1C (stereo not drawn) [Example 122, 5-(((2-methoxy-5-nitrobenzyl)oxy)(1-methyl-1H-imidazol-5-yl)methyl)-2′-methyl(1,1′-biphenyl)-2-carbonitrile hydrochloride] |  |
| 97% | Cc1ccccc1-c1cc(C(OCc2ccc(Cl)c(Cl)c2)c2cncn2C)ccc1C#N (stereo not drawn) [Example 125, 5-(((3,4-dichlorobenzyl)oxy)(1-methyl-1H-imidazol-5-yl)methyl)-2′-methyl(1,1′-biphenyl)-2-carbonitrile hydrochloride] |  |
| 92% | Cc1ccccc1-c1cc(C(OCc2ccccc2C#N)c2cncn2C)ccc1C#N (stereo not drawn) [Example 126, 5-(((2-cyanobenzyl)oxy)(1-methyl-1H-imidazol-5-yl)methyl)-2′-methyl(1,1′-biphenyl)-2-carbonitrile hydrochloride] |  |
